Assay results as given in PubChem BioAssay (NCI).
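Values below derive from 48-hour exposures of cells grown in 96-well plates, with endpoints linearly interpolated between the two concentrations bracketing the appropriate inhibition level. At the GI50, growth is halved. Definition used: TGI = concentration required for complete inhibition of growth.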

Columns and labels:
Experiment in all cases: NCI-60 cell line screen, 48 h
HL-60(TB) leukemia = test system: HL-60(TB) leukemia
M14 melanoma = test system: M14 melanoma
MCF7 breast = test system: MCF7 breast
OVCAR-5 ovarian = test system: OVCAR-5 ovarian
CAKI-1 renal = test system: CAKI-1 renal
RPMI-8226 leukemia = test system: RPMI-8226 leukemia
ACHN renal = test system: ACHN renal
UACC-257 melanoma = test system: UACC-257 melanoma
PC-3 prostate = test system: PC-3 prostate
EKVX NSCLC = test system: EKVX NSCLC
NCI-H522 lung = test system: NCI-H522 lung
HOP-92 NSCLC = test system: HOP-92 NSCLC
HOP-62 NSCLC = test system: HOP-62 NSCLC
BT-549 breast = test system: BT-549 breast
UACC-62 melanoma = test system: UACC-62 melanoma
MDA-MB-231 breast = test system: MDA-MB-231 breast
CCRF-CEM leukemia = test system: CCRF-CEM leukemia
OVCAR-8 ovarian = test system: OVCAR-8 ovarian
OVCAR-4 ovarian = test system: OVCAR-4 ovarian
SF-268 CNS = test system: SF-268 CNS
SK-MEL-5 melanoma = test system: SK-MEL-5 melanoma
IGROV1 ovarian = test system: IGROV1 ovarian
OVCAR-3 ovarian = test system: OVCAR-3 ovarian
SK-OV-3 ovarian = test system: SK-OV-3 ovarian
HCT-116 colon = test system: HCT-116 colon
HCT-15 colon = test system: HCT-15 colon
TK-10 renal = test system: TK-10 renal
786-0 renal = test system: 786-0 renal
A549 NSCLC = test system: A549 NSCLC
NCI/ADR-RES ovarian = test system: NCI/ADR-RES ovarian
HS 578T breast = test system: HS 578T breast
A498 renal = test system: A498 renal
RXF 393 renal = test system: RXF 393 renal
SR leukemia = test system: SR leukemia
HT29 colon = test system: HT29 colon
MOLT-4 leukemia = test system: MOLT-4 leukemia
HCC-2998 colon = test system: HCC-2998 colon
SNB-75 CNS = test system: SNB-75 CNS
SK-MEL-28 melanoma = test system: SK-MEL-28 melanoma
KM12 colon = test system: KM12 colon
COLO 205 colon = test system: COLO 205 colon
NCI-H460 lung = test system: NCI-H460 lung
SK-MEL-2 melanoma = test system: SK-MEL-2 melanoma
UO-31 renal = test system: UO-31 renal
T-47D breast = test system: T-47D breast
SF-539 CNS = test system: SF-539 CNS
NCI-H226 lung = test system: NCI-H226 lung
SW-620 colon = test system: SW-620 colon
LOX IMVI melanoma = test system: LOX IMVI melanoma
DU-145 prostate = test system: DU-145 prostate
MALME-3M melanoma = test system: MALME-3M melanoma
NCI-H23 lung = test system: NCI-H23 lung
K-562 leukemia = test system: K-562 leukemia
MDA-MB-435 = test system: MDA-MB-435
SNB-19 CNS = test system: SNB-19 CNS
U251 CNS = test system: U251 CNS
SN12C renal = test system: SN12C renal
SF-295 CNS = test system: SF-295 CNS

C=C(C)[C@@H]1CC[C@]2(C(N)=O)CC[C@]3(C)[C@H](CC[C@@H]4[C@@]5(C)C/C(=C/c6cccnc6)C(=O)C(C)(C)[C@@H]5CC[C@]43C)[C@@H]12
GI50 (HL-60(TB) leukemia): 3.15 µM
TGI (HL-60(TB) leukemia): 13.9 µM
GI50 (M14 melanoma): 8.05 µM
TGI (M14 melanoma): > 100 µM
GI50 (MCF7 breast): 3.49 µM
TGI (MCF7 breast): > 100 µM
GI50 (OVCAR-5 ovarian): 12.7 µM
TGI (OVCAR-5 ovarian): 39.7 µM
GI50 (CAKI-1 renal): 2.56 µM
TGI (CAKI-1 renal): 21.2 µM
GI50 (RPMI-8226 leukemia): 2.44 µM
TGI (RPMI-8226 leukemia): 22.1 µM
GI50 (ACHN renal): 4.96 µM
TGI (ACHN renal): > 100 µM
GI50 (UACC-257 melanoma): 7.2 µM
TGI (UACC-257 melanoma): > 100 µM
GI50 (PC-3 prostate): 2.36 µM
TGI (PC-3 prostate): 25.6 µM
GI50 (EKVX NSCLC): 4.99 µM
TGI (EKVX NSCLC): 67 µM
GI50 (NCI-H522 lung): 6.77 µM
TGI (NCI-H522 lung): 63 µM
GI50 (HOP-92 NSCLC): 3.21 µM
TGI (HOP-92 NSCLC): > 100 µM
GI50 (HOP-62 NSCLC): 12.4 µM
TGI (HOP-62 NSCLC): > 100 µM
GI50 (BT-549 breast): 8.89 µM
TGI (BT-549 breast): > 100 µM
GI50 (UACC-62 melanoma): 5.97 µM
TGI (UACC-62 melanoma): 29.9 µM
GI50 (MDA-MB-231 breast): 15.2 µM
TGI (MDA-MB-231 breast): > 100 µM
GI50 (CCRF-CEM leukemia): 4.48 µM
TGI (CCRF-CEM leukemia): > 100 µM
GI50 (OVCAR-8 ovarian): 9.96 µM
TGI (OVCAR-8 ovarian): > 100 µM
GI50 (OVCAR-4 ovarian): 4.28 µM
TGI (OVCAR-4 ovarian): > 100 µM
GI50 (SF-268 CNS): 7.52 µM
TGI (SF-268 CNS): > 100 µM
GI50 (SK-MEL-5 melanoma): 5.42 µM
TGI (SK-MEL-5 melanoma): 17.6 µM
GI50 (IGROV1 ovarian): 14 µM
TGI (IGROV1 ovarian): > 100 µM
GI50 (OVCAR-3 ovarian): 5.91 µM
TGI (OVCAR-3 ovarian): 43.8 µM
GI50 (SK-OV-3 ovarian): 10.6 µM
TGI (SK-OV-3 ovarian): > 100 µM
GI50 (HCT-116 colon): 3.96 µM
TGI (HCT-116 colon): 66.4 µM
GI50 (HCT-15 colon): 4.4 µM
TGI (HCT-15 colon): > 100 µM
GI50 (TK-10 renal): 24.7 µM
TGI (TK-10 renal): > 100 µM
GI50 (786-0 renal): 14.7 µM
TGI (786-0 renal): > 100 µM
GI50 (A549 NSCLC): 3.84 µM
TGI (A549 NSCLC): > 100 µM
GI50 (NCI/ADR-RES ovarian): 7.13 µM
TGI (NCI/ADR-RES ovarian): > 100 µM
GI50 (HS 578T breast): 17.9 µM
TGI (HS 578T breast): > 100 µM
GI50 (A498 renal): 23.8 µM
TGI (A498 renal): > 100 µM
GI50 (RXF 393 renal): 3.41 µM
TGI (RXF 393 renal): 16.4 µM
GI50 (SR leukemia): 5.1 µM
TGI (SR leukemia): > 100 µM
GI50 (HT29 colon): 6.03 µM
TGI (HT29 colon): 52.7 µM
GI50 (MOLT-4 leukemia): 3.14 µM
TGI (MOLT-4 leukemia): > 100 µM
GI50 (HCC-2998 colon): 9.04 µM
TGI (HCC-2998 colon): > 100 µM
GI50 (SNB-75 CNS): 8.63 µM
TGI (SNB-75 CNS): > 100 µM
GI50 (SK-MEL-28 melanoma): 8.81 µM
TGI (SK-MEL-28 melanoma): 33.2 µM
GI50 (KM12 colon): 4.67 µM
TGI (KM12 colon): 64.1 µM
GI50 (COLO 205 colon): 7.14 µM
TGI (COLO 205 colon): 27.6 µM
GI50 (NCI-H460 lung): 8.32 µM
TGI (NCI-H460 lung): 25.1 µM
GI50 (SK-MEL-2 melanoma): 12.1 µM
TGI (SK-MEL-2 melanoma): 39.8 µM
GI50 (UO-31 renal): 3.08 µM
TGI (UO-31 renal): > 100 µM
GI50 (T-47D breast): 3.99 µM
TGI (T-47D breast): > 100 µM
GI50 (SF-539 CNS): 10.9 µM
TGI (SF-539 CNS): 33.3 µM
GI50 (NCI-H226 lung): 6.9 µM
TGI (NCI-H226 lung): 60.7 µM
GI50 (SW-620 colon): 8.82 µM
TGI (SW-620 colon): > 100 µM
GI50 (LOX IMVI melanoma): 5.89 µM
TGI (LOX IMVI melanoma): 18.6 µM
GI50 (DU-145 prostate): 8.36 µM
TGI (DU-145 prostate): > 100 µM
GI50 (MALME-3M melanoma): 7.54 µM
TGI (MALME-3M melanoma): 41.7 µM
GI50 (NCI-H23 lung): 14.7 µM
TGI (NCI-H23 lung): > 100 µM
GI50 (K-562 leukemia): 3.75 µM
TGI (K-562 leukemia): > 100 µM
GI50 (MDA-MB-435): 5.52 µM
TGI (MDA-MB-435): > 100 µM
GI50 (SNB-19 CNS): 9.22 µM
TGI (SNB-19 CNS): > 100 µM
GI50 (U251 CNS): 7.3 µM
TGI (U251 CNS): 47.2 µM
GI50 (SN12C renal): 5.88 µM
TGI (SN12C renal): > 100 µM
GI50 (SF-295 CNS): 3.84 µM
TGI (SF-295 CNS): 42.3 µM
